Structures can show the parent of a compound that is named as a salt.
Test system: KK mice (age 4-5 months) with diabetes
Assay: Blood sugar lowering effect in KK mice with diabetes
Assay type: in vivo
Conditions: Mus musculus, po, 72 h, powder diet containing 0.01% of the test compound for 3 days, plasma glucose vs control group, groups of 4 mice, read-out: Blood sugar decrease rate (%)
Source text: [Test Example] Blood Sugar Lowering Effect
Blood samples were collected from the caudal vein of KK mice (age 4-5 months) with diabetes followed by measurement of their blood sugar levels. Next, after assigning the mice to groups (of 4 mice each) so that the mean blood sugar levels of each group were the same, mouse laboratory powder diet (F-1, Funabashi Farms), prepared so as to contain 0.01% of the test compound, was given to the mice for 3 days. The groups of mice that were given test compound were designated as the drug dose groups. It should be noted that a group that was given laboratory diet not containing the test compound was designated as the control group. Blood samples were collected from the caudal vein of the mice 3 days later and the glucose concentration of the plasma obtained by centrifugal separation was measured with a glucose analyzer (Glucoloader, A & T Corp.). The mean decrease of blood sugar rate (%) was determined according to the following equation.
Blood sugar decrease rate (%)=(mean blood sugar value of control group−mean blood sugar value […] of drug dose group)×100/(blood sugar value of control group)

Structure (SMILES)	inhibition in vivo at 0.01 % in diet [%]
Cn1c(COc2ccc(CC3SC(=O)NC3=O)cc2)nc2ccc(Oc3ccc(CCNC(=O)c4cccnc4)cc3)cc21 (centres unmarked) [Example 63, N-[2-[4-[2-[4-(2,4-Dioxothiazolidin-5-ylmethyl)phenoxymethyl]-1-methyl-1H-benzimidazol-6-yloxy]phenyl]ethyl]nicotinamide dihydrochloride]	55.7
Cn1c(COc2ccc(CC3SC(=O)NC3=O)cc2)nc2ccc(Oc3ccc(CCNC(=O)Cc4cccc(Cl)c4)cc3)cc21 (centres unmarked) [Example 64, 2-(3-Chlorophenyl)-N-[2-[4-[2-[4-(2,4-dioxothiazolidin-5-ylmethyl)phenoxymethyl]-1-methyl-1H-benzimidazol-6-yloxy]phenyl]ethyl]acetamide hydrochloride]	43.5
